According to US10208089B2, “Modulation of complement activity” (priority 2014, dated 2019):
Entries after “also recorded” stand apart in the source; their conditions may differ. Read-outs that look alike come from different tables or passages of the source. Starred links: 1 amine or outer side, 2 acyl side, 3 side chain; linkers in the order of their positions; H or OH if unused. Positions of bridges follow the written chain, without caps; N, C: chain ends. Non-standard residues stand in square brackets, D forms with d. Residues, ends and D or L forms follow the SMILES beside them. Trp(7-aza) = N[C@@H](Cc1c[nH]c2ncccc12)C(=O)O; mXylylene = c1cc(C[*:1])cc(C[*:2])c1; Phg = N[C@H](C(=O)O)c1ccccc1; Tle = CC(C)(C)[C@H](N)C(=O)O; NMeS = CN[C@@H](CO)C(=O)O; Nva = CCC[C@H](N)C(=O)O

Tests used:
C5 [1] = molecular target: T1, C5 (Homo sapiens, UniProt P01031); assay: Human hemolysis assay (RBC lysis assay using complete human sera); type: cell-based; parameters: with complete human sera (Complement Technology, Tyler Tex.) and polypeptides; tissue Complement Technology, Tyler Tex; host or cells: complete human serum; details: inhibition of lysis of antibody-sensitized sheep erythrocytes, complete human sera
C5 [2] = molecular target: T1, C5; assay: Competitive fluorescence polarization assay with probe R3076; type: binding; parameters: purchased Complement Technology, Tyler, Tex
Protocol: FP allows binding events to be measured in a homogenous solution.
Polarization was measured over time, until binding reached equilibrium. KD was determined using Graphpad Prism (using “Saturating Binding Curves, One Site—Specific Binding With Hill Slope” as the curve fit to determine KD).
10 μl of this working stock was then added to each well in the assay plate. The assay plate was incubated at room temperature, protected from light, for 20 minutes to allow binding to reach equilibrium.
Test articles listed in Table 7 were subsequently diluted in DMSO then assay buffer, comprising 10 2-fold dilutions and were then added to the assay plate in triplicate, rapidly. The assay plate was then incubated in the Paradigm (Molecular Devices, Sunnyvale, Calif.) plate reader for 60 minutes at 25° C.
After incubation for 60 minutes, the plate was read using the Paradigm FP protocol (Molecular Devices, Sunnyvale, Calif.) and raw polarization values were imported into Graphpad Prism.

[3] = average of Exp 1 and Exp 2, read-out: Avg, nM IC50
[4] = competition with probe R3076 25 nM, C5 50 nM, 60 min at 25° C., experiment 1, read-out: IC50 nM, Exp 1
[5] = competition with probe R3076 25 nM, C5 50 nM, 60 min at 25° C., experiment 1, read-out: Ki nM, Exp 1
[6] = competition with probe R3076 25 nM, C5 50 nM, 60 min at 25° C., experiment 2, read-out: IC50 nM, Exp 2
[7] = competition with probe R3076 25 nM, C5 50 nM, 60 min at 25° C., experiment 2, read-out: Ki nM, Exp 2
[8] = average of Exp 1 and Exp 2, read-out: Avg, nM Ki

T1 sequence (P01031 19-1676): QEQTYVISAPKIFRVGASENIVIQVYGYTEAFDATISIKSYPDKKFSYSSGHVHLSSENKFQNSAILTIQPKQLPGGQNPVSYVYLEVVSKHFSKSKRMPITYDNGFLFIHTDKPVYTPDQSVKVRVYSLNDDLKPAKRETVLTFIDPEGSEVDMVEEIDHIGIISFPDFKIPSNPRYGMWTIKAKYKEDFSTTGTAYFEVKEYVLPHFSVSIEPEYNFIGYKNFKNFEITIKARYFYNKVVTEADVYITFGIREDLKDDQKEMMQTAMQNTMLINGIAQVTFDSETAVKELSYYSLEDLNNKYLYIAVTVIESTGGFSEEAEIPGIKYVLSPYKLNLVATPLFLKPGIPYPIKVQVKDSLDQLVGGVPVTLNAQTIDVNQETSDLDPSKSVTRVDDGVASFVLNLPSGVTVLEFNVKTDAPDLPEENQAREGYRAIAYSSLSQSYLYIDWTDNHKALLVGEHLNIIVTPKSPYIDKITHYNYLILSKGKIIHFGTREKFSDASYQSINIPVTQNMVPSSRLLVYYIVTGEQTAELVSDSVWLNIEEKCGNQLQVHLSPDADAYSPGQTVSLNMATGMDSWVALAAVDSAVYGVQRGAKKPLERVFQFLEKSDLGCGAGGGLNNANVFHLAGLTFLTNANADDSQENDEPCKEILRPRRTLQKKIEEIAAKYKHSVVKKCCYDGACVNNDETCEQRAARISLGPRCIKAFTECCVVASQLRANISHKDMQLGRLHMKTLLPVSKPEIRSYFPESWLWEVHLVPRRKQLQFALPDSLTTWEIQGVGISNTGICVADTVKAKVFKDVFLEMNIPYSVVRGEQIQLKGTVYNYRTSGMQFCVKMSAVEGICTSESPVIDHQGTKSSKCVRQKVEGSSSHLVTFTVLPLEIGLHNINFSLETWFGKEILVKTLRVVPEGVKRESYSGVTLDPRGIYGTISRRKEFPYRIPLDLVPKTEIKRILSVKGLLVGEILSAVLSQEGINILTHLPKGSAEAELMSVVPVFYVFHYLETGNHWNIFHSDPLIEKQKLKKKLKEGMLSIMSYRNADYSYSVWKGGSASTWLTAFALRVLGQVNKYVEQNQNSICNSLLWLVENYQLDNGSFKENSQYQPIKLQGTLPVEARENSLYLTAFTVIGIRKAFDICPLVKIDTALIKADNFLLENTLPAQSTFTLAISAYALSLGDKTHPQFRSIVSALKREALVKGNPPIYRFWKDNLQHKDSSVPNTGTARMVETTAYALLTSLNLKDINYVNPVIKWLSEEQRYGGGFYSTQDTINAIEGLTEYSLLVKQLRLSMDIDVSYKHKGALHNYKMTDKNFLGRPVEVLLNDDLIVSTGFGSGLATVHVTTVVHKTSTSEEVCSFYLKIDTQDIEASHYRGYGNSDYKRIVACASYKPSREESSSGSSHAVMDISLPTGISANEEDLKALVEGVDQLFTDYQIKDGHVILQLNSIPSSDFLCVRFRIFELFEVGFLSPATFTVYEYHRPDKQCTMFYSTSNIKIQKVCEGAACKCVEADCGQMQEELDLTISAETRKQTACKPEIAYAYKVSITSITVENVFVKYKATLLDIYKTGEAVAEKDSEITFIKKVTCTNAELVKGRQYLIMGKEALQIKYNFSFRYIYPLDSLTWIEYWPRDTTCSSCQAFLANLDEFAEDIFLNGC

| IC50 (C5 [2]; [3]) [nM] | IC50 (C5 [2]; [4]) [nM] | Ki (C5 [2]; [5]) [nM] | IC50 (C5 [2]; [6]) [nM] | Ki (C5 [2]; [7]) [nM] | competition with labeled probe / affinity for C5 (in words) (C5 [2]; probe R3076 25 nM, C5 50 nM) | Ki (C5 [2]; probe R3076 25 nM, C5 50 nM, read-out: Ki) [nM] | Ki (C5 [2]; [8]) [nM] | Structure (SMILES) | IC50 (C5 [1]) [nM] |
| --- | --- | --- | --- | --- | --- | --- | --- | --- | --- |
| 68.4 | 72.7 | 10.4 | 64.1 | 8.69 | most potent | 9.54 |  | CCC[C@H](NC(C)=O)C(=O)N[C@@H](CS)C(=O)N[C@@H](Cc1ccc(O)cc1)C(=O)N[C@@H](CCC(=O)O)C(=O)N[C@@H](CC(N)=O)C(=O)N[C@H](C(=O)N[C@@H](Cc1ccc(O)cc1)C(=O)N[C@@H](Cc1c[nH]c2ncccc12)C(=O)N[C@@H](CCC(=O)O)C(=O)N[C@@H](Cc1ccc(O)cc1)C(=O)N1CCC[C@H]1C(=O)N[C@H](C(=O)N1CCC[C@H]1C(N)=O)c1ccccc1)C(C)(C)C [Compound R3003, Ac-Nvl-C-Y-E-N-Tbg-Y-azaTrp-E-Y-P-Phg-P-NH2] (Ac-[Nva]CYEN[Tle]Y[Trp(7-aza)]EYP[Phg]P-NH2) | 13.9 |
| 278 | 295 | 73.2 | 261 | 86.9 | relatively strong affinity |  | 80 | CCC[C@H](NC(C)=O)C(=O)N[C@H]1CSCc2cccc(c2)CSC[C@@H](C(=O)N[C@@H](CCC)C(=O)N2CCC[C@H]2C(N)=O)NC(=O)[C@H](Cc2c[nH]cn2)NC(=O)[C@H](CO)N(C)C(=O)[C@H](Cc2ccc(O)cc2)NC(=O)[C@H](CCC(=O)O)NC(=O)[C@H](Cc2c[nH]c3ncccc23)NC(=O)[C@H]([C@@H](C)O)NC(=O)[C@H](c2ccccc2)NC1=O [Compound R3011, [mXylyl(2,10)]Ac-Nvl-C-Phg-T-azaTrp-E-Y-(N-Me)S-H-C-Nvl-P-NH2] (Ac-[Nva]C[Phg]T[Trp(7-aza)]EY[NMeS]HC[Nva]P-NH2; linker 2-10 via mXylylene) | 112 |
| 6820 | 6060 | 1400 | 7580 | 1590 | weak affinity |  | 1490 | CCC[C@H](NC(=O)[C@@H]1CCCN1C(=O)[C@H](CCC)NC(=O)[C@@H]1CSCc2cccc(c2)CSC[C@H](NC(C)=O)C(=O)N[C@@H](c2ccccc2)C(=O)N[C@@H]([C@@H](C)O)C(=O)N[C@@H](Cc2c[nH]c3ncccc23)C(=O)N[C@@H](CCC(=O)O)C(=O)N[C@@H](Cc2ccc(O)cc2)C(=O)N(C)[C@@H](CO)C(=O)N[C@@H](Cc2c[nH]cn2)C(=O)N1)C(N)=O [Compound R3014, [mXylyl(1,9)]Ac-C-Phg-T-azaTrp-E-Y-(N-Me)S-H-C-Nvl-P-Nvl-NH2] (Ac-C[Phg]T[Trp(7-aza)]EY[NMeS]HC[Nva]P[Nva]-NH2; linker 1-9 via mXylylene) | 1420 |

| Structure (SMILES) | IC50 (C5 [2]; [3]) [nM] | IC50 (C5 [2]; [4]) [nM] | Ki (C5 [2]; [5]) [nM] | IC50 (C5 [2]; [6]) [nM] | Ki (C5 [2]; [7]) [nM] | competition with labeled probe / affinity for C5 (in words) (C5 [2]; probe R3076 25 nM, C5 50 nM) | Ki (C5 [2]; probe R3076 25 nM, C5 50 nM, read-out: Ki) [nM] | Ki (C5 [2]; [8]) [nM] | IC50 (C5 [1]) [nM] |
| --- | --- | --- | --- | --- | --- | --- | --- | --- | --- |
| CCC[C@H](NC(=O)[C@H](Cc1ccc(O)cc1)NC(=O)[C@H](CC(N)=O)NC(=O)[C@H](CCC)NC(=O)[C@H](CCC(=O)O)NC(=O)[C@@H](NC(=O)[C@H](Cc1c[nH]c2ncccc12)NC(=O)[C@@H](NC(=O)[C@H](CS)NC(=O)[C@H](Cc1ccc(O)cc1)NC(=O)[C@@H]1CCCN1C(=O)[C@H](Cc1ccc(O)cc1)NC(C)=O)c1ccccc1)C(C)(C)C)C(=O)N[C@@H](CCC(=O)O)C(N)=O [Compound R3023, Ac-Y-P-Y-C-Phg-azaTrp-Tbg-E-Nvl-N-Y-Nvl-E-NH2] (Ac-YPYC[Phg][Trp(7-aza)][Tle]E[Nva]NY[Nva]E-NH2) | > 1000 | > 1000 | > 1000 | > 1000 | > 1000 | no activity at the highest concentration tested; also recorded: not detected at the highest concentration tested; also recorded: no affinity |  | > 1000 | > 100000 |
